pIC50: −log10 of the molar value. Like-named read-outs stand apart in the source and are kept apart here.
Key:
[1] = target: BTK enzyme (recombinant full-length BTK, hBTK) (Homo sapiens (Human), UniProt Q06187); assay: Btk enzyme activity assay, LANCE TR-FRET; type: biochemical; settings: 50 pM hBTK, 2 μM biotin-A5-peptide, 25 μM ATP; 60 minute compound & enzyme incubation; read-out: BTK binding IC50
Experimental: Btk Enzyme Activity Assay Methods
BTK enzymatic activity was determined with the LANCE (Lanthanide Chelate Excite) TR-FRET (Time-resolved fluorescence resonance energy transfer) assay. […] After 60 minutes incubation with detection reagents, reaction plates were read on a PerkinElmer EnVision plate reader using standard TR-FRET protocol.

[2] = system: HeLa cells; assay: [3H] Adenosine uptake assay; type: cell-based; settings: accumulation of tritiated adenosine into HeLa cells, compound concentration range 10 μM to 0.032 nM, read-out: ADU inhibition IC50 (adenosine uptake inhibition potency)
How it was run: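 Accumulation of tritiated adenosine in adherent HeLa cells, detected by scintillant-plate coincidence counting, gives IC50 via 4-parameter robust fit. Compound (constant 0.25% DMSO) applied 30 min ahead, then 60 min radiolabel exposure (added from 500 nM solution), ambient conditions, HBSS with 5% FBS.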

Chain of BTK enzyme (recombinant full-length BTK, hBTK) (Q06187 whole entry): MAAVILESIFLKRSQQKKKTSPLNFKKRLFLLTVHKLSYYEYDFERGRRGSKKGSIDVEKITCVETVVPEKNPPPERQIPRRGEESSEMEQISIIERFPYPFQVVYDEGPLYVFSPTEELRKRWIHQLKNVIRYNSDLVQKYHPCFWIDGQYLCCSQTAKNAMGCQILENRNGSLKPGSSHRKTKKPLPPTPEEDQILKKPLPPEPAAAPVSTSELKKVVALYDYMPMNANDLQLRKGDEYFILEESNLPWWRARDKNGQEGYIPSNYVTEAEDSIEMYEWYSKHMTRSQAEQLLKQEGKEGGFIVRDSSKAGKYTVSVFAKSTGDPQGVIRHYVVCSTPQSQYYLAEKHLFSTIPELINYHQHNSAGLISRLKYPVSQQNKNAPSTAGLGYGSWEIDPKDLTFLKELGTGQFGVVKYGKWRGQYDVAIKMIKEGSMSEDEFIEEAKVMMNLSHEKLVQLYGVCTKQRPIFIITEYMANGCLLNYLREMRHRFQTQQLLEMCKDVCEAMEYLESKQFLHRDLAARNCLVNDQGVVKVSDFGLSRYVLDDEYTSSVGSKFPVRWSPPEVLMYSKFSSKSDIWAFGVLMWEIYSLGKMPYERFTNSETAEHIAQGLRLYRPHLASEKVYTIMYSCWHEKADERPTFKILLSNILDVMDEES

Compound | pIC50 [1] | pIC50 [2] | pIC50 ([2]; Homo sapiens, HeLa)
CCOc1cc(C(=O)Nc2cc(C(F)(F)F)ccn2)ccc1-c1nc([C@@H]2CC[C@@H](C(=O)O)O2)n2ccnc(N)c12 [Example 117, (2S,5S)-5-[8-amino-1-(2-ethoxy-4-{[4-(trifluoromethyl)pyridin-2-yl]carbamoyl}phenyl)imidazo[1,5-a]pyrazin-3-yl]tetrahydrofuran-2-carboxylic acid] | 8.06 | 5.52 | –
CC1(C)[C@@H](C(=O)O)CC[C@]1(C)c1nc(-c2ccc(C(=O)Nc3cc(C(F)(F)F)ccn3)cc2)c2c(N)nccn12 [Example 147, (1S,3S)-3-[8-amino-1-(4-{[4-(trifluoromethyl)pyridin-2-yl]carbamoyl}phenyl)imidazo[1,5-a]pyrazin-3-yl]-2,2,3-trimethylcyclopentane carboxylic acid] | 8.15 | – | 5.00
Nc1nccn2c(-c3ccc(C(=O)O)nc3)nc(-c3ccc(C(=O)Nc4cc(C(F)(F)F)ccn4)cc3)c12 [Example 29, 5-[8-amino-1-(4-{[4-(trifluoromethyl)pyridin-2-yl]carbamoyl}phenyl)imidazo[1,5-a]pyrazin-3-yl]pyridine-2-carboxylic acid] | 7.95 | – | 5.13
CCOc1cc(C(=O)Nc2cc(C(F)(F)F)ccn2)ccc1-c1nc([C@@H]2C[C@H]3CC[C@@H](C2)[C@H]3C(=O)O)n2ccnc(N)c12 [Example 105, (3-exo,8-syn)-3-[8-amino-1-(2-ethoxy-4-{[4-(trifluoromethyl)pyridin-2-yl]carbamoyl}phenyl)imidazo[1,5-a]pyrazin-3-yl]bicyclo[3.2.1] octane-8-carboxylic acid] | 8.72 | – | 5.00
C[C@H]1CO[C@@H](c2nc(-c3ccc(C(=O)Nc4cc(C(F)F)ccn4)cc3F)c3c(N)ncc(Cl)n23)CN1[C@H]1CC[C@](C)(C(=O)O)CC1 [Example 207, trans-4-{(2R,5S)-2-[8-amino-5-chloro-1-(4-{[4-(difluoromethyl)pyridin-2-yl]carbamoyl}-2-fluorophenyl)imidazo[1,5-a]pyrazin-3-yl]-5-methylmorpholin-4-yl}-1-methylcyclohexanecarboxylic acid] | 6.13 | – | 5.00
Nc1nccn2c([C@H]3CC[C@H]4[C@H](C(=O)O)[C@H]43)nc(-c3ccc(C(=O)Nc4cc(C(F)(F)F)ccn4)cc3)c12 [Example 57, (1R,2S,5R,6S)-2-[8-amino-1-(4-{[4-(trifluoromethyl)pyridin-2-yl]carbamoyl}phenyl)imidazo[1,5-a]pyrazin-3-yl]bicyclo[3.1.0] hexane-6-carboxylic acid] | 8.49 | – | 5.00
C[C@]1(C(=O)O)CCCN(c2nc(-c3ccc(C(=O)Nc4cc(C(F)(F)F)ccn4)cc3)c3c(N)nccn23)C1 [Example 42, (3S)-1-[8-amino-1-(4-{[4-(trifluoromethyl)pyridin-2-yl]carbamoyl}phenyl)imidazo[1,5-a]pyrazin-3-yl]-3-methylpiperidine-3-carboxylic acid] | 7.64 | – | 5.56
Nc1nccn2c(N3CC[C@@H](C(=O)O)C3)nc(-c3ccc(C(=O)Nc4cc(C(F)(F)F)ccn4)cc3)c12 [Example 36, (3R)-1-[8-amino-1-(4-{[4-(trifluoromethyl)pyridin-2-yl]carbamoyl}phenyl)imidazo[1,5-a]pyrazin-3-yl]pyrrolidine-3-carboxylic acid] | 8.59 | – | 5.33
C[C@]1(C(=O)O)CC[C@@H](N2CCO[C@@H](c3nc(-c4ccc(C(=O)Nc5cc(C6CC6)ccn5)cc4F)c4c(N)nccn34)C2)CC1 [Example 198, cis-4-[(2R)-2-(8-amino-1-{4-[(4-cyclopropylpyridin-2-yl)carbamoyl]-2-fluorophenyl}imidazo[1,5-a]pyrazin-3-yl)morpholin-4-yl]-1-methylcyclohexanecarboxylic acid] | 7.98 | – | 5.69
CCOc1cc(C(=O)Nc2cc(C(F)(F)F)ccn2)ccc1-c1nc([C@@H]2CC[C@@H](C(=O)O)O2)n2ccnc(N)c12 [Example 116, (2S,5S)-5-[8-amino-1-(2-ethoxy-4-{[4-(trifluoromethyl)pyridin-2-yl]carbamoyl}phenyl)imidazo[1,5-a]pyrazin-3-yl]tetrahydrofuran-2-carboxylic acid] | 7.66 | 5.94 | –

These reach a higher pIC50 [1]. Values come first.

pIC50 [1] | pIC50 [2] | pIC50 ([2]; Homo sapiens, HeLa) | Compound
8.77 | – | 5.29 | CC(C)(C(=O)O)C1CCC(c2nc(-c3ccc(C(=O)Nc4cc(C(F)(F)F)ccn4)cc3)c3c(N)nccn23)C1 (centres unmarked) [Example 95, 2-{3-[8-amino-1-(4-{[4-(trifluoromethyl)pyridin-2-yl]carbamoyl}phenyl)imidazo[1,5-a]pyrazin-3-yl]cyclopentyl}-2-methylpropanoic acid]
8.85 | – | 5.00 | C[C@]1(C(=O)O)CCN(c2nc(-c3ccc(C(=O)Nc4cc(C(F)(F)F)ccn4)cc3)c3c(N)nccn23)C1 [Example 45, (3S)-1-[8-amino-1-(4-{[4-(trifluoromethyl)pyridin-2-yl]carbamoyl}phenyl)imidazo[1,5-a]pyrazin-3-yl]-3-methylpyrrolidine-3-carboxylic acid]
8.89 | – | 5.00 | C[C@H]1CO[C@@H](c2nc(-c3ccc(C(=O)Nc4cc(C(F)F)ccn4)cc3)c3c(N)ncc(Cl)n23)CN1[C@H]1CC[C@](C)(C(=O)O)CC1 [Example 205, trans-4-{(2R,5S)-2-[8-amino-5-chloro-1-(4-{[4-(difluoromethyl)pyridin-2-yl]carbamoyl}phenyl)imidazo [1,5-a]pyrazin-3-yl]-5-methylmorpholin-4-yl}-1-methylcyclohexanecarboxylic acid]
9.00 | – | 5.00 | Nc1nccn2c(-c3ccc(F)c(C(=O)O)c3)nc(-c3ccc(C(=O)Nc4cc(C(F)(F)F)ccn4)cc3)c12 [Example 24, 5-[8-amino-1-(4-{[4-(trifluoromethyl)pyridin-2-yl]carbamoyl}phenyl)imidazo[1,5-a]pyrazin-3-yl]-2-fluorobenzoic acid]
9.12 | – | 5.00 | COc1cc(C(=O)Nc2cc(C(F)(F)F)ccn2)ccc1-c1nc([C@H]2CN(C(=O)C34CC(C(=O)O)(C3)C4)[C@@H](C)CO2)n2ccnc(N)c12 [Example 177, 3-({(2R,5S)-2-[8-amino-1-(2-methoxy-4-{[4-(trifluoromethyl)pyridin-2-yl]carbamoyl}phenyl)imidazo [1,5-a]pyrazin-3-yl]-5-methylmorpholin-4-yl}carbonyl)bicyclo[1.1.1] pentane-1-carboxylic acid]
9.13 | – | 6.11 | CC(C)[C@]1(C(=O)O)CC[C@@H](c2nc(-c3ccc(C(=O)Nc4cc(C(F)(F)F)ccn4)cc3)c3c(N)ncc(Cl)n23)C1 [Example 106, (1S.3R)-3-[8-amino-5-chloro-1-(4-{[4-(trifluoromethyl)pyridin-2-yl]carbamoyl}phenyl)imidazo[1,5-a]pyrazin-3-yl]-1-(1-methylethyl) cyclopentane-carboxylic acid]
9.25 | – | 5.00 | Nc1nccn2c(-c3cccc(C(=O)O)c3)nc(-c3ccc(C(=O)Nc4cc(C(F)(F)F)ccn4)cc3)c12 [Example 23, 3-(8-amino-1-(4-((4-(trifluoromethyl)pyridin-2-yl)carbamoyl)phenyl)imidazo[1,5-a]pyrazin-3-yl)benzoic acid]
9.29 | – | 5.33 | CCOc1cc(C(=O)Nc2cc(C(F)(F)F)ccn2)ccc1-c1nc(C2CC3(CC(C(=O)O)C3)C2)n2ccnc(N)c12 (centres unmarked) [Example 93, 6-[8-amino-1-(2-ethoxy-4-{[4-(trifluoromethyl)pyridin-2-yl]carbamoyl}phenyl)imidazo[1,5-a]pyrazin-3-yl]spiro[3.3]heptane-2-carboxylic acid]
9.37 | – | 5.17 | CCOc1cc(C(=O)Nc2cc(C(F)(F)F)ccn2)ccc1-c1nc([C@@H]2C[C@@H]3[C@H](C2)[C@H]3C(=O)O)n2ccnc(N)c12 [Example 135, (1R,3R,5S,6r)-3-[8-amino-1-(2-ethoxy-4-{[4-(trifluoromethyl)pyridin-2-yl]carbamoyl}phenyl)imidazo[1,5-a]pyrazin-3-yl]bicyclo[3.1.0] hexane-6-carboxylic acid]
9.39 | – | 6.18 | N#Cc1ccnc(NC(=O)c2ccc(-c3nc(C45C6C7C4C4C5C6C74C(=O)O)n4ccnc(N)c34)c(F)c2)c1 (centres unmarked) [Example 76, 4-(8-amino-1-(4-((4-cyanopyridin-2-yl)carbamoyl)-2-fluorophenyl)imidazo [1,5-a]pyrazin-3-yl)cubane-1-carboxylic acid]
9.39 | – | 6.27 | Nc1nccn2c(C34CCC(C(=O)O)(CC3)CC4)nc(-c3ccc(C(=O)Nc4cc(C(F)(F)F)ccn4)cc3O)c12 [Example 161, 4-[8-amino-1-(2-hydroxy-4-{[4-(trifluoromethyl)pyridin-2-yl]carbamoyl}phenyl)imidazo[1,5-a]pyrazin-3-yl]bicyclo[2.2.2] octane-1-carboxylic acid]
9.47 | 5.22 | – | C[C@@]1(C(=O)O)CCC[C@@](C)(c2nc(-c3ccc(C(=O)Nc4cc(C(F)(F)F)ccn4)cc3)c3c(N)nccn23)C1 [Example 138, (1R,3R)-3-[8-amino-1-(4-{[4-(trifluoromethyl)pyridin-2-yl]carbamoyl}phenyl)imidazo[1,5-a]pyrazin-3-yl]-1,3-dimethylcyclohexane-carboxylic acid]

Reference: US10087188B2, “Benzamide imidazopyrazine Btk inhibitors” (MERCK SHARP & DOHME CORP., priority 2014, dated 2018)
